In data set [1] the target is T1, Fc-fusion protein of human PSMA (hPSMA-Fc) (Homo sapiens, UniProt Q04609).
T1 construct: purchased Acro Biosystems PSA-H5264
Nature of the data set: Surface plasmon resonance assay (Biacore T200, single cycle kinetic). Format: binding. To be noted: hPSMA-Fc, 25° C., read-out: pKD CAT (converted). The gist of the method:
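KD, expressed as pKD, came from 1:1 Langmuir fits of reference- and buffer-blank-subtracted SPR data. The runs were single-cycle kinetics at 25° C in HBST/0.1% DMSO over human PSMA-Fc, captured to ~1000 RU on a peptide-coated CM5 surface and regenerated with 10 mM glycine pH 1.5.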
A general note: SPR reads the build-up and loss of mass on a sensor chip optically.

Another data set deals with PC3-PIP tumor model. The arrangement: species or system mice. To be noted: mouse, in vivo. An outline of the steps:
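Male nude mice bearing shoulder xenografts (5×10^6 PC3-PIP cells, or 5×10^6 or 1×10^7 C4-2 cells) received ~30 MBq of ^111In-labeled compound intravenously via tail vein. SPECT/CT regions of interest for heart, kidney and tumor gave % ID/g, mean of two to three animals per time point, range as error.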

For data set [2], the target named is T2, PSMA-expressing C4-2 cells (Homo sapiens, UniProt Q04609).
T2 construct: PSMA-expressing C4-2 cells (ATCC, Cat. No. CRL-3314) were cultured in RPMI-1640; host or cells: C4-2 cells
Put plainly: FACS binding assay (competition with 50 nM PSM-0183). To be noted: read-out: pIC50 [C4-2] CAT (converted). The gist of the method:
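Competition format: fluorescent tracer PSM-0183 (50 nM) displaced from PSMA on C4-2 cells by a test compound titration over 1 h at 4 °C. Bound tracer was quantified as flow-cytometric AF488 median fluorescence after washing. Four-parameter logistic fits of MFI data gave IC50 and pIC50.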
In general terms: A flow cytometer gives signals particle by particle.

In the next data set the target is T3, recombinant human PSMA (Homo sapiens, UniProt Q04609).
T3 construct: purchased BioVision K440-100
Nature of the data set: Enzyme inhibition assay (GCPII Inhibitor Screening Kit, fluorescence-based). To be noted: carboxypeptidase activity of recombinant human PSMA; highest final concentration 1 μM. Format: biochemical. As for the experimental part: This peptidase activity hydrolyzes γ-peptide bonds between N-acetyl amino acid and glutamate of its substrate.
The carboxypeptidase inhibition of recombinant human PSMA by test compounds was assessed using a commercial fluorescence-based PSMA activity inhibition assay.
The employed Glutamate Carboxypeptidase II (GCPII) Inhibitor Screening Kit (BioVision, Cat #K440-100) is a fluorescence-based, enzymatic in vitro assay to measure the potency of PSMA inhibitors. The provided substrate is […] in the presence of PSMA producing glutamate. The detection system is based on an enzymatic reaction in which a fluorogenic probe is reduced, generating a stable signal.
For the assay, recombinant human PSMA was diluted in GCPII Assay Buffer as recommended in the assay protocol. Serial dilutions of the test compounds were prepared, starting from 10 μM (final reaction concentration of 1 μM). In a 96-well assay plate, 40 μL of the PSMA working solution was mixed with 30 μL of GCPII Assay Buffer. Next, 10 μL of the serially diluted test compounds were added. The mixture was incubated for 20 min at 37° C. Subsequently, 20 μL of a reaction mix solution was added. The fluorescence signal increased due to fluorophore reduction, which is directly proportional to the produced amount of glutamate, was measured in kinetic mode for 90 minutes at 37° C. in a SpectraMax M5 plate reader. RFU/see was assessed by the SoftMax Pro software and plotted against peptide concentrations. Four-parameter logistic (4PL) curve fitting and pIC50 calculations were performed using the GraphPad Prism software.

The mark [3] stands for this setting: pKD category for PSMA SPR activity assay.
Where [4] appears, read: pIC50 category of FACS binding, C4-2 cells.
Setting [5] is: SPR, single cycle kinetic, category.
Where [6] appears, read: FACS binding, C4-2 cells, competition with 50 nM PSM-0183, category.

Read-outs that look alike come from different tables or passages of the source. Numbered stars: 1 amine (or outer) side, 2 acyl side, 3 side chain; on linkers, the order of the positions; unused ones are H or OH. Bridge positions count the residues as written; N and C are the ends. Square brackets hold non-standard residues; d marks the D form. Peptide text beside a SMILES is read from it. * marks the point of attachment. X3 = O=C(O)CN1CCN(CC(=O)O)CCN(CC(=O)NCCCOCCOCCOCCCN*)CCN(CC(=O)O)CC1; DOTA = O=C(O)CN1CCN(CC(=O)O)CCN(CC(=O)*)CCN(CC(=O)O)CC1; Phe(4-Cl) = N[C@@H](Cc1ccc(Cl)cc1)C(=O)O; Arg(Me) = CNC(=N)NCCC[C@H](N)C(=O)O; Ethylenediamine = C(CN[*:2])N[*:1]; X1 = O=C(CC1CCN([*:1])CC1)[*:2]; Cit = NC(=O)NCCC[C@H](N)C(=O)O; Lys(Me) = CNCCCC[C@H](N)C(=O)O; Suc = O=C(CCC(=O)[*:2])[*:1]; Tle = CC(C)(C)[C@H](N)C(=O)O; 4Amb = NCc1ccc(C(=O)O)cc1; Aib = CC(C)(N)C(=O)O; βAla = NCCC(=O)O

T2 sequence (Q04609 whole entry): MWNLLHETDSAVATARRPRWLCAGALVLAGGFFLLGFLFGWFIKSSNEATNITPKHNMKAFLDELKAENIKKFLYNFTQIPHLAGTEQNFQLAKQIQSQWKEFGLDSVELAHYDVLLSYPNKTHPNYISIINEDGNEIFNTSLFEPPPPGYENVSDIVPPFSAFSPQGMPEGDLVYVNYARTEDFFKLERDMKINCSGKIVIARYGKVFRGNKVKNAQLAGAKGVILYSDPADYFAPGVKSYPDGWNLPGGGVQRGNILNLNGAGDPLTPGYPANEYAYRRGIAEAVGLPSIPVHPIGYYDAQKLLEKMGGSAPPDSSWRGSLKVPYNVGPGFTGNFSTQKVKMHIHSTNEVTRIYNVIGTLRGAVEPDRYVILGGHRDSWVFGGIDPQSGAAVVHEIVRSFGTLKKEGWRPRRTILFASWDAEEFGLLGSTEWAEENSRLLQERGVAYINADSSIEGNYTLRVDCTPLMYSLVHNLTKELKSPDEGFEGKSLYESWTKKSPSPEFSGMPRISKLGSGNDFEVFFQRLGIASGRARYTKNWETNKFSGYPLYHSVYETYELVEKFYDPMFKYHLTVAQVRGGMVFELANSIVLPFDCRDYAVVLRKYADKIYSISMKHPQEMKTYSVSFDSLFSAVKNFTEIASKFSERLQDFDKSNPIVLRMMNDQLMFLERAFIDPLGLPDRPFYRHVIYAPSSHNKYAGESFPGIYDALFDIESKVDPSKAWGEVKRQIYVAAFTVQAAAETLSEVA
T3 sequence (Q04609 whole entry): as above
T1 sequence (Q04609 44-750 limits assumed): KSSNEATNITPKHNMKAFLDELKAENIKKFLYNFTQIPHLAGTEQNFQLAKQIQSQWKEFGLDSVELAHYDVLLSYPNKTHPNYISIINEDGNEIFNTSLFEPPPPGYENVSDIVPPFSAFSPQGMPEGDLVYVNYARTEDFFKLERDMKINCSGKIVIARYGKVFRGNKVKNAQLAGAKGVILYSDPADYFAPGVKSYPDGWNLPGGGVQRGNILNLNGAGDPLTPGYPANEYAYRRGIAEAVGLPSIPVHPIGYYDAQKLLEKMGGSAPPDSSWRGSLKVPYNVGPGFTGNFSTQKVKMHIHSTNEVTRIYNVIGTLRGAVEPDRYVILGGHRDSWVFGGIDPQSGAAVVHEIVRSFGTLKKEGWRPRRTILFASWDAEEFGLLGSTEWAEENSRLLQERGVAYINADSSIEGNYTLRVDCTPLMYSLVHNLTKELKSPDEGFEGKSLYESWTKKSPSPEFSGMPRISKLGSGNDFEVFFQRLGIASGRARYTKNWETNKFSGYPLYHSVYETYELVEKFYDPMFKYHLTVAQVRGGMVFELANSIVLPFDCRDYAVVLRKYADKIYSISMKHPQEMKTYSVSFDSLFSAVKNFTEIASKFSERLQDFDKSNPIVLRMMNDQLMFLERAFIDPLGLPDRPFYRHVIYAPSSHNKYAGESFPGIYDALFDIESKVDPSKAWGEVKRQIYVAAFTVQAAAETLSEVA

In the case of `CC(=O)NC(C)(C)C(=O)N[C@@H](Cc1ccc(Cl)cc1)C(=O)N[C@H]1CSSC[C@@H](C(=O)N[C@H](C(=O)NCCNC(=O)CN2CCN(CC(=O)O)CCN(CC(=O)O)CCN(CC(=O)O)CC2)C(C)(C)C)NC(=O)[C@H](CC(N)=O)NC(=O)C(C)(C)NC(=O)[C@H](CCCNC(=N)N)NC(=O)[C@H](CCCCN)NC1=O` [PSM-0516, Ac-Aib-Pcf-[Cys-Lys-Arg-Aib-Asn-Cys]-Tle-en-DOTA] (Ac-[Aib][Phe(4-Cl)]CKR[Aib]NC[Tle]-{Ethylenediamine-DOTA}; disulfide 3-8), the Kd in data set [1] (setting [3]) was under 12.6 nM. In the data set on PC3-PIP tumor model, the “AUC ratio [T/K]” value worked out at 1.4. Also, in the data set on PC3-PIP tumor model, the “Tumor AUC” value was determined as 250 % ID/g*h. The IC50 is under 200 nM in data set [2] (setting [4]) and over 1000 nM at recombinant human PSMA.
Regarding `CC(=O)N[C@H](C(=O)NC(C)(C)C(=O)N[C@@H](Cc1ccccc1)C(=O)N[C@H]1CSSC[C@@H](C(=O)N[C@H](C(=O)N[C@H](C(=O)N[C@@H](CC(=O)O)C(N)=O)[C@@H](C)O)C(C)(C)C)NC(=O)[C@H](CC(N)=O)NC(=O)C(C)(C)NC(=O)[C@H](CCCNC(=N)N)NC(=O)[C@H](CCCCN)NC1=O)[C@@H](C)O` [PSM-0374, Ac-Thr-Aib-Phe-[Cys-Lys-Arg-Aib-Asn-Cys]-Tle-Thr-Asp-NH2] (Ac-T[Aib]FCKR[Aib]NC[Tle]TD-NH2; disulfide 4-9), the Kd in data set [1] (setting [3]) is under 12.6 nM. Besides, the IC50 was under 200 nM in data set [2] (setting [4]) and over 1000 nM on recombinant human PSMA.
Consider `C[C@@H](O)[C@H](NC(=O)[C@@H](NC(=O)[C@@H]1CSSC[C@H](NC(=O)[C@H](Cc2ccc(Cl)cc2)NC(=O)C(C)(C)NC(=O)[C@@H](NC(=O)CC2CCN(C(=O)CN3CCN(CC(=O)O)CCN(CC(=O)O)CCN(CC(=O)O)CC3)CC2)[C@@H](C)O)C(=O)N[C@@H](CCCCN)C(=O)N[C@@H](CCCNC(=N)N)C(=O)N[C@@H](CCC(=O)O)C(=O)N[C@@H](CC(N)=O)C(=O)N1)C(C)(C)C)C(N)=O` [PSM-0416, DOTA-Cmp-Thr-Aib-Pcf-[Cys-Lys-Arg-Glu-Asn-Cys]-Tle-Thr-NH2] ({DOTA}-[X1]T[Aib][Phe(4-Cl)]CKRENC[Tle]T-NH2; disulfide 5-10), for which the Kd in data set [1] (setting [3]) was under 12.6 nM. For the same molecule, in the data set on PC3-PIP tumor model, the “AUC ratio [T/K]” value amounted to 1.6 and the “Tumor AUC” value was found to be 170 % ID/g*h. In data set [2] (setting [4]), the IC50 is under 200 nM. Moreover, the IC50 on recombinant human PSMA was over 1000 nM.
As to `CNCCCC[C@@H]1NC(=O)[C@@H](NC(=O)[C@H](Cc2ccc(Cl)cc2)NC(=O)C(C)(C)NC(=O)[C@@H](NC(=O)CC2CCN(C(=O)CN3CCN(CC(=O)O)CCN(CC(=O)O)CCN(CC(=O)O)CC3)CC2)[C@@H](C)O)CSSC[C@@H](C(=O)N[C@H](C(=O)N[C@H](C(N)=O)[C@@H](C)O)C(C)(C)C)NC(=O)[C@H](CC(N)=O)NC(=O)C(C)(C)NC(=O)[C@H](CCCNC(=N)NC)NC1=O` [PSM-0194, DOTA-Cmp-Thr-Aib-Pcf-[Cys-Lys(Me)-Arg(Me)-Aib-Asn-Cys]-Tle-Thr-NH2] ({DOTA}-[X1]T[Aib][Phe(4-Cl)]C[Lys(Me)][Arg(Me)][Aib]NC[Tle]T-NH2; disulfide 5-10), in data set [1] (setting [5]), the Kd was under 12.6 nM. Also, in the data set on PC3-PIP tumor model, the “AUC ratio [T/K]” value turned out to be 6.7 and the “Tumor AUC” value is 180 % ID/g*h. Also, in data set [2] (setting [6]), the IC50 is under 200 nM. Further, the IC50 at recombinant human PSMA was over 1000 nM.
For the molecule `CC(=O)NC(C)(C)C(=O)N[C@@H](Cc1ccc(Cl)cc1)C(=O)N[C@H]1CSSC[C@@H](C(=O)N[C@H](C(N)=O)C(C)(C)C)NC(=O)[C@H](CC(N)=O)NC(=O)C(C)(C)NC(=O)[C@H](CCCNC(=N)N)NC(=O)[C@H](CCCCN)NC1=O` [PSM-0424, Ac-Aib-Pcf-[Cys-Lys-Arg-Aib-Asn-Cys]-Tle-NH2] (Ac-[Aib][Phe(4-Cl)]CKR[Aib]NC[Tle]-NH2; disulfide 3-8), the Kd in data set [1] (setting [3]) is under 12.6 nM. Also, the IC50 is under 200 nM in data set [2] (setting [4]) and over 1000 nM at recombinant human PSMA.
`C[C@@H](O)[C@H](NC(=O)CC1CCN(C(=O)CN2CCN(CC(=O)O)CCN(CC(=O)O)CCN(CC(=O)O)CC2)CC1)C(=O)NC(C)(C)C(=O)N[C@@H](Cc1ccccc1)C(=O)N[C@H]1CSSC[C@@H](C(=O)N[C@H](C(=O)NCCC(N)=O)C(C)(C)C)NC(=O)[C@H](CC(N)=O)NC(=O)C(C)(C)NC(=O)[C@H](CCCNC(=N)N)NC(=O)[C@H](CCCCN)NC1=O` [PSM-0449, DOTA-Cmp-Thr-Aib-Pho-[Cys-Lys-Arg-Aib-Asn-Cys]-Tle-Bal-NH2] ({DOTA}-[X1]T[Aib]FCKR[Aib]NC[Tle][βAla]-NH2; disulfide 5-10): the Kd in data set [1] (setting [3]) was under 12.6 nM. Also, in the data set on PC3-PIP tumor model, the “AUC ratio [T/K]” value came to 1.4 and the “Tumor AUC” value is 220 % ID/g*h. Moreover, the IC50 in data set [2] (setting [4]) is under 200 nM.
In the case of `CC(C)(NC(=O)c1ccc(CNC(=O)CN2CCN(CC(=O)O)CCN(CC(=O)O)CCN(CC(=O)O)CC2)cc1)C(=O)N[C@@H](Cc1ccc(Cl)cc1)C(=O)N[C@H]1CSSC[C@@H](C(=O)N[C@H](C(=O)NCCN)C(C)(C)C)NC(=O)[C@H](CC(N)=O)NC(=O)C(C)(C)NC(=O)[C@H](CCCNC(=N)N)NC(=O)[C@H](CCCCN)NC1=O` [PSM-0273, DOTA-Pamb-Aib-Pcf-[Cys-Lys-Arg-Aib-Asn-Cys]-Tle-en] ({DOTA-4Amb}-[Aib][Phe(4-Cl)]CKR[Aib]NC[Tle]-Ethylenediamine; disulfide 3-8), in data set [1] (PSMA SPR assay, pKD category), the Kd is under 12.6 nM. In the data set on PC3-PIP tumor model, the “AUC ratio [T/K]” value was determined as 0.21 and the “Tumor AUC” value came to 110 % ID/g*h. For the same molecule, in data set [2] (FACS binding, PSMA-expressing C4-2 cells, pIC50 category), the IC50 was under 200 nM.
With `C[C@@H](O)[C@H](NC(=O)[C@@H](NC(=O)[C@@H]1CSSC[C@H](NC(=O)[C@H](Cc2ccccc2)NC(=O)C(C)(C)NC(=O)[C@@H](NC(=O)CCC(=O)NCCCOCCOCCOCCCNC(=O)CN2CCN(CC(=O)O)CCN(CC(=O)O)CCN(CC(=O)O)CC2)[C@@H](C)O)C(=O)N[C@@H](CCCCN)C(=O)N[C@@H](CCCNC(N)=O)C(=O)NC(C)(C)C(=O)N[C@@H](CC(N)=O)C(=O)N1)C(C)(C)C)C(N)=O` [PSM-0234, DOTA-Ttds-Thr-Aib-Phe-[Cys-Lys-Cit-Aib-Asn-Cys]-Tle-Thr-NH2] ({X3-Suc}-T[Aib]FCK[Cit][Aib]NC[Tle]T-NH2; disulfide 4-9), the Kd in data set [1] (setting [5]) is 12.6 to 126 nM. Besides, in the data set on PC3-PIP tumor model, the “AUC ratio [T/K]” value was 0.64 and the “Tumor AUC” value came to 62 % ID/g*h. The IC50 in data set [2] (setting [6]) was 200 to 1260 nM.

The record behind these values is US20260083865A1, “PROSTATE SPECIFIC MEMBRANE ANTIGEN (PSMA) LIGANDS AND USE THEREOF” (priority 2022, published 2026).
